Data from patent US11098040B2, “Compounds and methods of use” (Ferro Therapeutics, Inc., priority 2018, dated 2021).
Where two headings read alike, the source gives them in different places.

Legend:
[1] = tested on: 786-O; assay: Cell proliferation (Alamar Blue) assay, 786-O renal cell carcinoma, with/without ferrostatin; assay type: cell-based; conditions: Homo sapiens
Method: (§1) Cell viability assay was performed to assess the potency of the compounds in human cancer cell lines 786-O (renal cell carcinoma) and SJSA-1 (osteosarcoma). Additional cell lines, such as those described above in Example 4 as well as various others, e.g., pancreatic cancer cell lines (Panc 02.13, BxPC-3, Panc 12, Panc 02.03, Panc 6.03, PSN-1, HPAC, and Capan-1) and prostate cancer cell lines (PC-3, DU145, 22Rv1, NCI-H660, BPH1, LNCaP, BM-1604, and MDA PCa 2b), were tested for select compounds as shown in Table 25.
(§2) Cells (SJSA-1, 786-O and A431) were seeded (5000 cells/100 μL/well) in 96-well tissue culture plate and incubated at 37° C./5% CO2 for 16-24 hours. The cells were then treated with compounds (25 μL of 5×). The compound concentrations were 10-0.0005 μM prepared in 3-fold serial dilutions with final DMSO concentration of 1%. The plates were then incubated for 24 h at 37° C./5% CO2 in a moist environment. Then Alamar Blue™ reagent (final concentration 1×-12.5 μL) was added to each well and incubated for 1.5 hours at 37° C./5% CO2. The plates were read on fluorescence reader at 540 nm excitation and 590 nm emission wavelengths. The IC50 values were subsequently determined using a sigmoidal dose-response curve (variable slope) in GraphPad Prism® 5 software.
(§3) Studies have shown that lipophilic antioxidants, such as ferrostatin, can rescue cells from GPX4 inhibition-induced ferroptosis. For instance, mesenchymal state GPX4-knockout cells can survive in the presence of ferrostatin, however, when the supply of ferrostatin is terminated, these cells undergo ferroptosis (see, e.g., Viswanathan et al., Nature 547:453-7, 2017). […] Accordingly, the ability of a molecule to induce ferroptotic cancer cell death, and that such ability is admonished by the addition of ferrostatin, is clear indication that the molecule is an GPX4 inhibitor.

[2] = tested on: SJSA-1; assay: Cell proliferation (Alamar Blue) assay, SJSA-1 osteosarcoma, with/without ferrostatin; assay type: cell-based, human; conditions: Homo sapiens
Method: as §1, §2, §3

[3] = tested on: KP4; assay: Cell viability assay (CellTiter Glo), pancreatic ductal adenocarcinoma KP4; assay type: cell-based, human; conditions: Homo sapiens, KP-4, 96 h, pancreatic cancer cell line KP4, 96 hours, CellTiter Glo; read-out: IC50 μM KP4
In short: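 KP4 cells seeded at 1,000–10,000 per well, treated 96 h with 9-point 3-fold dilutions from 30 μM top (4.6 nM–30 μM, duplicates; ≤0.25% DMSO). Viability by CellTiter Glo luminescence; % inhibition relative to DMSO-only wells, giving IC50, relative IC50 or % top inhibition.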

[4] = 786-0, Cell Line 786-O, read-out: IC50
[5] = SJSA-1, Cell Line SJSA-1, read-out: IC50
[6] = 786-0, 24 h, Alamar Blue, 24 h, 2 μM ferrostatin, read-out: 786-O (IC50, μM) 2 μM Ferrostatin
[7] = 786-0, 24 h, Alamar Blue, 24 h, without ferrostatin, read-out: 786-O (IC50, μM) Without Ferrostatin
[8] = SJSA-1, 24 h, Alamar Blue, 24 h, 2 μM ferrostatin, read-out: SJSA-1 (IC50, μM) 2 μM Ferrostatin
[9] = SJSA-1, 24 h, Alamar Blue, 24 h, without ferrostatin, read-out: SJSA-1 (IC50, μM) Without Ferrostatin

SMILES	IC50 [1, 4] [µM]	IC50 [2, 5] [µM]	also measured
C[C@H]1Cc2c([nH]c3ccccc23)[C@@H](c2ccc(C(=O)Nc3ccccn3)cc2)N1C(=O)CCl (single isomer, unassigned) [Compound 160]	1	1.3	
C[C@H]1Cc2c([nH]c3ccccc23)[C@@H](c2ccc(S(=O)(=O)NC3CC3)cc2F)N1C(=O)CCl (single isomer, unassigned) [Compound 161]	2.8	4.3	
C[C@H]1Cc2c([nH]c3ccccc23)[C@H](c2ccc(S(=O)(=O)NC3CC3)cc2F)N1C(=O)CCl (single isomer, unassigned) [Compound 217]	0.022	0.028	
C[C@H]1Cc2c([nH]c3ccccc23)[C@H](c2ccc(N3CCN(C)CC3)cc2)N1C(=O)OCl [Compound 104]	0.068		IC50 [3]: 0.01 to 0.1 µM
C[C@H]1Cc2c([nH]c3ccccc23)C(c2ccc(S(N)(=O)=O)cc2)N1C(=O)CCl (stereo partly drawn) [Compound 123]	2.4		
C[C@H]1Cc2c([nH]c3ccccc23)C(c2ccc(N3CCOCC3)nc2)N1C(=O)CCl (stereo partly drawn) [Compound 124]	0.245		
C[C@H]1Cc2c([nH]c3ccccc23)[C@@H](c2ccc(N3CCOCC3)cc2)N1C(=O)CCl [Compound 125, 2-chloro-1-((1R,3S)-3-methyl-1-(4-morpholinophenyl)-1,3,4,9-tetrahydro-2H-pyrido[3,4-b]indol-2-yl)ethan-1-one]	2	4	
CC1CN(c2ccc([C@@H]3c4[nH]c5ccccc5c4C[C@H](C)N3C(=O)CCl)cc2)CCO1 (stereo partly drawn) [Compound 127]	> 10		
COC(=O)[C@H]1Cc2c([nH]c3ccccc23)[C@@H](c2ccc(C(=O)NC34CC5CC(CC(C5)C3)C4)cc2)N1C(=O)CCl [Compound 130, Methyl-(1R,3R)-1-(4-(((3S,5S,7S)-adamantan-1-yl)carbamoyl)phenyl)-2-(2-chloroacetyl)-2,3,4,9-tetrahydro-1H-pyrido[3,4-b]indole-3-carboxylate]	1.8	2.7	
C[C@H]1Cc2c([nH]c3ccccc23)[C@@H](c2ccc(S(=O)(=O)NC3CCNCC3)cc2)N1C(=O)CCl [Compound 133, 4-((1R,3S)-2-(2-chloroacetyl)-3-methyl-2,3,4,9-tetrahydro-1H-pyrido[3,4-b]indol-1-yl)-N-(piperidin-4-yl)benzenesulfonamide2,2,2-trifluoroacetic acid]	> 10	> 10	
C#CC(=O)N1[C@@H](c2ccc(S(=O)(=O)NC3CC3)cc2F)c2[nH]c3ccc(F)cc3c2C[C@@H]1C [Compound 153, N-cyclopropyl-3-fluoro-4-((1S,3S)-6-fluoro-3-methyl-2-propioloyl-2,3,4,9-tetrahydro-1H-pyrido[3,4-b]indol-1-yl)benzenesulfonamide]	0.009	0.015	
C[C@H]1Cc2c([nH]c3ccccc23)[C@H](c2cnn(C3CCOCC3)c2)N1C(=O)CCl [Compound 158]	0.591		
C[C@H]1Cc2c([nH]c3ccccc23)[C@@H](c2cnn(C3CCOCC3)c2)N1C(=O)CCl [Compound 159]	4.6		
COC[C@H]1Cc2c([nH]c3ccccc23)C(c2ccc(C(=O)NC3CC3)cc2F)N1C(=O)CCl (stereo partly drawn) [Compound 162, 4-((3R)-2-(2-chloroacetyl)-3-(methoxymethyl)-2,3,4,9-tetrahydro-1H-pyrido[3,4-b]indol-1-yl)-N-cyclopropyl-3-fluorobenzamide]	0.06	0.085	
C[C@H]1Cc2c([nH]c3ccccc23)[C@H](c2ccncc2)N1C(=O)CCl [Compound 171]	0.162		IC50 [1, 6]: > 10 µM; IC50 [1, 7]: 0.162 µM; IC50 [2, 8]: > 10 µM; IC50 [2, 9]: 0.254 µM
C#CC(=O)N1[C@@H](c2ccc(S(=O)(=O)NC3CC3)cc2F)c2[nH]c3ccccc3c2C[C@@H]1C [Compound 174]	0.016		IC50 [1, 6]: 5.09 µM; IC50 [1, 7]: 0.016 µM; IC50 [2, 8]: 2.32 µM; IC50 [2, 9]: 0.091 µM

SMILES	IC50 [1, 4] [µM]	IC50 [2, 5] [µM]	also measured
C=C(C(=O)N1[C@@H](c2ccc(N3CCOCC3)cc2)c2[nH]c3ccccc3c2C[C@@H]1C)C(F)(F)F [Compound 175]	> 10	> 10	
CCS(=O)(=O)N1CCN(c2ccc([C@H]3c4[nH]c5ccccc5c4C[C@H](C)N3C(=O)CCl)cc2)CC1 [Compound 209]	0.022		IC50 [1, 6]: > 10 µM; IC50 [1, 7]: 0.022 µM; IC50 [2, 8]: 8.29 µM; IC50 [2, 9]: 0.019 µM
C#CCOc1ccc2[nH]c3c(c2c1)C[C@H](C(=O)OC)N(C(=O)CCl)[C@H]3c1ccc(C(=O)NC23CC4CC(CC(C4)C2)C3)cc1 [Compound 211]	0.009		IC50 [1, 6]: 3.94 µM; IC50 [1, 7]: 0.009 µM; IC50 [2, 8]: 5.92 µM; IC50 [2, 9]: 0.011 µM
CC1CN(c2ccc([C@H]3c4[nH]c5ccccc5c4C[C@H](C)N3C(=O)CCl)cc2)CC(C)O1 (stereo partly drawn) [Compound 212]		0.011	IC50 [1, 6]: 4.96 µM; IC50 [1, 7]: 0.008 µM; IC50 [2, 8]: 5.03 µM; IC50 [2, 9]: 0.011 µM
C[C@H]1Cc2c([nH]c3ccccc23)[C@H](c2ccc(S(=O)(=O)NC3CCNCC3)cc2)N1C(=O)CCl [Compound 218, 4-((1S,3S)-2-(2-chloroacetyl)-3-methyl-2,3,4,9-tetrahydro-1H-pyrido[3,4-b]indol-1-yl)-N-(piperidin-4-yl)benzenesulfonamide]	8.1	1.4	
C[C@H]1Cc2c([nH]c3ccccc23)[C@H](c2ccc(N3CCOCC3)nc2)N1C(=O)CCl [Compound 220]	0.098		
Cc1ccc(S(=O)(=O)OCC(=O)N2[C@@H](c3ccc(N4CCOCC4)cc3)c3[nH]c4ccccc4c3C[C@@H]2C)cc1 [Compound 223]	0.275		
C#CC(=O)N1[C@@H](c2ccc(N3CCOCC3)cc2)c2[nH]c3ccccc3c2C[C@@H]1C [Compound 231]	0.27		
COC(=O)c1ccc([C@H]2c3[nH]c4ccc(OC)cc4c3C[C@H](C)N2C(=O)CCl)cc1 [Compound 278]	0.22	0.14	
C#CC(=O)N1[C@@H](c2ccc(C(=O)NC3CC3)cc2)c2ccc(OC)cc2C[C@@H]1C [Compound 279]	0.58	1	
COc1ccc2c(c1)C[C@H](C)N(C(=O)CCl)[C@H]2c1ccc(C(=O)NC2CC2)cc1 [Compound 280]	0.21	0.38	
COc1ccc2[nH]c3c(c2c1)C[C@H](C)N(C(=O)CCl)[C@H]3c1ccc(F)cc1 [Compound 281]	0.206	0.261	
C#CC(=O)N1[C@@H](c2ccc(F)cc2)c2[nH]c3ccc(OC)cc3c2C[C@@H]1C [Compound 282]	0.223	0.436	
C[C@H]1Cc2c([nH]c3ccccc23)[C@H](c2ccc(S(=O)(=O)NC3CCN(C(=O)OC(C)(C)C)CC3)cc2)N1C(=O)CCl [Compound 293, tert-butyl-4-((4-((1S,3S)-2-(2-chloroacetyl)-3-methyl-2,3,4,9-tetrahydro-1H-pyrido[3,4-b]indol-1-yl)phenyl)sulfonamido)piperidine-1-carboxylate]	0.067	0.03	
C[C@H]1Cc2c([nH]c3ccccc23)[C@H](c2ccc(N3CCN(C)CC3)cc2)N1C(=O)CCl [Example 104]		0.147	
C[C@H]1Cc2c([nH]c3ccccc23)C(c2ccc(N3CCOCC3)nc2)N1C(=O)CCl (stereo partly drawn) [Example 124]		0.201	
